Results published in ChEMBL document CHEMBL1147966, “Remarkable drug-release enhancement with an elimination-based AB3 self-immolative dendritic amplifier” (Bioorg Med Chem, 2007).

How the values were obtained:
MOLT-3 [1] = assay: Antitumor activity against human MOLT3 cells in presence of Penicillin-G-amidase after 72 hrs by XTT assay; assay type: functional, cell-based; conditions: MOLT-3, 72 h
MOLT-3 [2] = assay: Antitumor activity against human MOLT3 cells in absence of Penicillin-G-amidase after 72 hrs by XTT assay; assay type: functional, cell-based; conditions: MOLT-3, 72 h

Compound | IC50 (MOLT-3 [1]) [µM] | IC50 (MOLT-3 [2]) [µM]
O=C(Cc1ccccc1)Nc1ccc(COC(=O)Nc2c(COC(=O)NC(Cc3ccc(N(CCCl)CCCl)cc3)C(=O)O)cc(COC(=O)NC(C(=O)O)c3ccc(N(CCCl)CCCl)cc3)cc2COC(=O)NC(Cc2ccc(N(CCCl)CCCl)cc2)C(=O)O)cc1 (stereo not given) | 0.5 | 100
CN(CCN(C)C(=O)Oc1c(COC(=O)NC(Cc2ccc(N(CCCl)CCCl)cc2)C(=O)O)cc(COC(=O)NC(C(=O)O)c2ccc(N(CCCl)CCCl)cc2)cc1COC(=O)NC(Cc1ccc(N(CCCl)CCCl)cc1)C(=O)O)C(=O)OCc1ccc(NC(=O)Cc2ccccc2)cc1 (stereo not given) | 6 | 100
N[C@@H](Cc1ccc(N(CCCl)CCCl)cc1)C(=O)O [MELPHALAN] | 0.3 | 
